Results from patent publication US10881110B2, “Herbicidal compositions comprising isoxazolo[5,4-b]pyridines” (BASF SE, priority 2014, dated 2021).

What was measured:
Assay in all cases: greenhouse post-emergence herbicidal test
PAPRH = type: in vivo, Papaver rhoeas; parameters: key: rating on a scale from 0 to 100
Experimental: (§1) The culture containers used were plastic pots containing medium loamy sand with approximately 4.6% of humus and 69.9% sand as substrate. The seeds of the test plants were sown separately for each species.
(§2) For the post-emergence treatment, the test plants were grown to a plant height of from 1 to 15 cm, depending on the plant habit, and only then treated with the active compounds which had been suspended or emulsified in water. To this end, the test plants were either sown directly, and grown in the same containers, or they were first grown separately as seedlings and transplanted into the test containers a few days prior to treatment.
(§3) Depending on the species, the plants were kept at 10-25° C. and 20-35° C., respectively.
(§4) The test period extended over 1 to 3 weeks. During this time, the plants were tended and their response to the individual treatments was evaluated 20 days after treatment except mentioned otherwise.
(§5) Evaluation was carried out using a scale from 0 to 100. 100 means no emergence of the plants, or complete destruction of at least the above-ground parts, and 0 means no damage or normal course of growth.
(§6) The respective stated components A and B, and, if appropriate, C, were formulated as a 10% by weight strength emulsion concentrate and, with addition of the amount of solvent system, introduced into the spray liquor used for applying the active compound. In the examples, the solvent used was water.
(§7) In the examples below, using the method of S. R. Colby (1967) “Calculating synergistic and antagonistic responses of herbicide combinations”, Weeds 15, p. 22 ff., the value E, which is expected if the activity of the individual active compounds is only additive, was calculated. E=X+Y−(X·Y/100)

ERICA = type: in vivo, Conyza canadensis; parameters: key to herbicidal activity against ERICA found: rating on a scale from 0 to 100; conditions: post emergence
Experimental: as §1, §2, §3, §4, §5, §6, §7

IPOHE = type: in vivo, Ipomoea hederacea; parameters: key to herbicidal activity against IPOHE found: rating on a scale from 0 to 100; conditions: post emergence
Experimental: as §1, §2, §3, §4, §5, §6, §7

MATCH = type: in vivo, Matricaria recutita; parameters: key to herbicidal activity against MATCH found: rating on a scale from 0 to 100; conditions: post emergence
Experimental: as §1, §2, §3, §4, §5, §6, §7

GERDI = type: in vivo, Geranium dissectum; parameters: key to herbicidal activity against GERDI found: rating on a scale from 0 to 100; conditions: post emergence; for herbicidal activity against GERDI found: I.1 62.5 g/ha
Experimental: as §1, §2, §3, §4, §5, §6, §7

ECHCG = type: in vivo, Echinochloa crus-galli; parameters: key to herbicidal activity against ECHCG found / herbicidal activity against ECHCH found: scale 0 to 100; conditions: post emergence; a.i. g/ha: I.1 62.5, B.79 25; 20 days after treatment
Experimental: as §1, §2, §3, §4, §5, §6, §7

POLCO = type: in vivo, Polygonum convolvulus; parameters: key to herbicidal activity against POLCO found: rating on a scale from 0 to 100; conditions: post emergence, 20 days after treatment
Experimental: as §1, §2, §3, §4, §5, §6, §7

ABUTH = type: in vivo, Abutilon theophrast; parameters: key to herbicidal activity against ABUTH found: rating on a scale from 0 to 100; conditions: post emergence; I.1 31.25 g/ha, B.88 1 g/ha a.i.
Experimental: as §1, §2, §3, §4, §5, §6, §7

ALOMY = type: in vivo, Alopecurus myosuroides; parameters: key to herbicidal activity against ALOMY found: rating on a scale from 0 to 100; conditions: post emergence, I.1 62.5 g/ha
Experimental: as §1, §2, §3, §4, §5, §6, §7

APESV = type: in vivo, Apera spica-venti; parameters: key to herbicidal activity against APESV found: rating on a scale from 0 to 100; conditions: post emergence
Experimental: as §1, §2, §3, §4, §5, §6, §7

KCHSC = type: in vivo, Kochia scoparia; parameters: key to herbicidal activity against KCHSC found: rating on a scale from 0 to 100; conditions: post emergence, B.88 1 g/ha a.i.
Experimental: as §1, §2, §3, §4, §5, §6, §7

[1] = I.1 62.5 g/ha, B.57 2 g/ha a.i.
[2] = I.1 31.25 g/ha, B.88 1 g/ha a.i.
[3] = I.1 31.25 g/ha, B.88 2 g/ha a.i.
[4] = I.1 62.5 g/ha, B.88 1 g/ha a.i.
[5] = I.1 62.5 g/ha, B.88 2 g/ha a.i.

`COc1cc(OC)n2nc(NS(=O)(=O)c3c(C(F)(F)F)ccnc3OC)nc2n1` [B.57, pyroxsulam] was tested. Which “herbicidal activity against PAPRH found” value (PAPRH; [1]) did it give?
The value was 0.

And the “herbicidal activity against ERICA found” value (ERICA; [1])?
Its value is 75.

And the “herbicidal activity against IPOHE found” value (IPOHE; I.1 62.5 g/ha, B.57 1 g/ha a.i.)?
The value was 80.

With `CCS(=O)(=O)c1cccnc1S(=O)(=O)NC(=O)Nc1nc(OC)cc(OC)n1` [B.59, rimsulfuron] as the compound, how does the “herbicidal activity against PAPRH found” value (PAPRH; 0.5 g/ha a.i.) read?
Its value is 65.

And the pest or weed control at 0.5 g/ha (MATCH; Matricaria chamomilla, post-emergence, 480 h, 0.5 g/ha a.i., read-out: herbicidal activity against MATCH found)?
Its pest or weed control at 0.5 g/ha is 75%.

What about the pest or weed control at 0.5 g/ha (ERICA; Erigeron canadensis, post-emergence, 480 h, 0.5 g/ha a.i., read-out: herbicidal activity against ERICA found) of the same compound?
The pest or weed control at 0.5 g/ha was 65%.

What about the pest or weed control at 0.5 g/ha (IPOHE; Ipomoea hederacea, post-emergence, 480 h, 0.5 g/ha a.i., read-out: herbicidal activity against IPOHE found) of the same compound?
Its pest or weed control at 0.5 g/ha is 90%.

And the pest or weed control at 0.5 g/ha (GERDI; Geranium dissectum, post-emergence, 480 h, 0.5 g/ha a.i., read-out: herbicidal activity against GERDI found)?
The pest or weed control at 0.5 g/ha was 75%.

For `CSc1nnc(C(C)(C)C)c(=O)n1N` [B.79, metribuzin], which “herbicidal activity against ECHCG found” value (ECHCG) is on record?
The value was 20%.

What about the “herbicidal activity against MATCH found” value (MATCH; a.i. g/ha: I.1 20.8, B.79 25, 20 days after treatment) of the same compound?
The value was 65%.

And the “herbicidal activity against POLCO found” value (POLCO; a.i. g/ha: I.1 20.8, B.79 25)?
Its value is 20%.

What about the “herbicidal activity against POLCO found” value (POLCO; a.i. g/ha: I.1 62.5, B.79 25) of the same compound?
Its value is 20%.

With `C#CCN1C(=O)COc2cc(F)c(N3C(=O)C4=C(CCCC4)C3=O)cc21` [B.88, flumioxazin] as the compound, how does the “herbicidal activity against ABUTH found” value (ABUTH) read?
Its value is 90.

What about the “herbicidal activity against PAPRH found” value (PAPRH; I.1 15.62 g/ha, B.88 2 g/ha a.i.) of the same compound?
The value was 75.

And the “herbicidal activity against PAPRH found” value (PAPRH; [2])?
The value was 25.

What about the “herbicidal activity against PAPRH found” value (PAPRH; [3]) of the same compound?
Its value is 75.

What about the “herbicidal activity against PAPRH found” value (PAPRH; [4]) of the same compound?
Its value is 25.

And the “herbicidal activity against PAPRH found” value (PAPRH; [5])?
The value was 75.

What about the “herbicidal activity against ALOMY found” value (ALOMY; B.88 1 g/ha a.i.) of the same compound?
Its value is 0.

What about the “herbicidal activity against ALOMY found” value (ALOMY; B.88 2 g/ha a.i.) of the same compound?
Its value is 20.

What about the “herbicidal activity against APESV found” value (APESV; I.1 15.62 g/ha, B.88 1 g/ha a.i.) of the same compound?
The value was 25.

And the “herbicidal activity against APESV found” value (APESV; [2])?
Its value is 25.

What about the “herbicidal activity against APESV found” value (APESV; [3]) of the same compound?
Its value is 65.

And the “herbicidal activity against APESV found” value (APESV; [4])?
Its value is 25.

What about the “herbicidal activity against APESV found” value (APESV; [5]) of the same compound?
The value was 65.

And the “herbicidal activity against KCHSC found” value (KCHSC; I.1 15.62 g/ha)?
Its value is 85.

What about the “herbicidal activity against KCHSC found” value (KCHSC; I.1 31.25 g/ha) of the same compound?
Its value is 85.

What about the “herbicidal activity against KCHSC found” value (KCHSC; I.1 62.5 g/ha) of the same compound?
The value was 85.

What about the “herbicidal activity against GERDI found” value (GERDI; B.88 1 g/ha a.i.) of the same compound?
Its value is 70.

And the “herbicidal activity against GERDI found” value (GERDI; B.88 2 g/ha a.i.)?
Its value is 70.
